Measured values taken from ChEMBL document CHEMBL1148029, “Synthesis and radiopharmacological characterization of 2beta-carbo-2'-[18F]fluoroethoxy-3beta-(4-bromo-phenyl)tropane ([18F]MCL-322) as a PET radiotracer for imaging the dopamine transporter (DAT)” (Bioorg Med Chem, 2007).

Columns and labels:
Testes [1] = experiment: Biodistribution in Wistar rat testes at 300 uCi, iv after 120 mins; assay type: ADME, organism-based, Testis; settings: in vivo, 2 h
Muscle tissue [2] = experiment: Biodistribution in Wistar rat muscle at 300 uCi, iv after 20 mins; assay type: ADME, organism-based; settings: in vivo
Thymus [3] = experiment: Biodistribution in Wistar rat thymus at 300 uCi, iv after 5 mins; assay type: ADME, organism-based; settings: in vivo
Testes [4] = experiment: Biodistribution in Wistar rat testes at 300 uCi, iv after 240 mins; assay type: ADME, organism-based, Testis; settings: in vivo, 4 h
Lung [5] = experiment: Biodistribution in Wistar rat lung at 300 uCi, iv after 60 mins; assay type: ADME, organism-based; settings: in vivo, 1 h
[6] = Biodistribution in Wistar rat rest of brain at 300 uCi, iv after 120 mins; assay type: ADME, organism-based; settings: in vivo, 2 h
Lung [7] = experiment: Biodistribution in Wistar rat lung at 300 uCi, iv after 120 mins; assay type: ADME, organism-based; settings: in vivo, 2 h
Cortex [8] = experiment: Biodistribution in Wistar rat cortex at 300 uCi, iv after 5 mins; assay type: ADME, organism-based; settings: in vivo
Plasma [9] = experiment: Metabolic stability in Wistar rat plasma assessed as polar metabolite level at 1 mCi, iv after 10 mins; assay type: ADME, organism-based; settings: in vivo
Hippocampus [10] = experiment: Biodistribution in Wistar rat hippocampus at 300 uCi, iv after 60 mins in presence of nisoxetine; assay type: ADME, organism-based; settings: in vivo, 1 h
Muscle tissue [11] = experiment: Biodistribution in Wistar rat muscle at 300 uCi, iv after 240 mins; assay type: ADME, organism-based; settings: in vivo, 4 h
Cortex [12] = experiment: Biodistribution in Wistar rat cortex at 300 uCi, iv after 60 mins in presence of GBR-12909; assay type: ADME, organism-based; settings: in vivo, 1 h
[13] = Biodistribution in Wistar rat hair and skin at 300 uCi, iv after 60 mins; assay type: ADME, organism-based; settings: in vivo, 1 h
Spleen [14] = experiment: Biodistribution in Wistar rat spleen at 300 uCi, iv after 60 mins; assay type: ADME, organism-based; settings: in vivo, 1 h
Pancreas [15] = experiment: Biodistribution in Wistar rat pancreas at 300 uCi, iv after 240 mins; assay type: ADME, organism-based; settings: in vivo, 4 h
Kidney [16] = experiment: Biodistribution in Wistar rat kidney at 300 uCi, iv after 60 mins; assay type: ADME, organism-based; settings: in vivo, 1 h
Spleen [17] = experiment: Biodistribution in Wistar rat spleen at 300 uCi, iv after 20 mins; assay type: ADME, organism-based; settings: in vivo
[18] = Biodistribution in Wistar rat brown fat at 300 uCi, iv after 5 mins; assay type: ADME, organism-based, Brown adipose tissue; settings: in vivo
Brain = experiment: Biodistribution in Wistar rat rest of brain at 300 uCi, iv after 60 mins in presence of citalopram; assay type: ADME, organism-based; settings: in vivo, 1 h
Adrenal [19] = experiment: Biodistribution in Wistar rat adrenal gland at 300 uCi, iv after 60 mins; assay type: ADME, organism-based, Adrenal tissue; settings: in vivo, 1 h
Striatum [20] = experiment: Biodistribution in Wistar rat striatum at 300 uCi, iv after 60 mins in presence of nisoxetine; assay type: ADME, organism-based; settings: in vivo, 1 h
Hippocampus [21] = experiment: Biodistribution in Wistar rat hippocampus at 300 uCi, iv after 240 mins; assay type: ADME, organism-based; settings: in vivo, 4 h
Pancreas [22] = experiment: Biodistribution in Wistar rat pancreas at 300 uCi, iv after 120 mins; assay type: ADME, organism-based; settings: in vivo, 2 h
Cortex [23] = experiment: Biodistribution in Wistar rat cortex at 300 uCi, iv after 60 mins in presence of nisoxetine; assay type: ADME, organism-based; settings: in vivo, 1 h
Blood [24] = experiment: Biodistribution in Wistar rat blood at 300 uCi, iv after 5 mins; assay type: ADME, organism-based; settings: in vivo
Pancreas [25] = experiment: Biodistribution in Wistar rat pancreas at 300 uCi, iv after 20 mins; assay type: ADME, organism-based; settings: in vivo
Lung [26] = experiment: Biodistribution in Wistar rat lung at 300 uCi, iv after 20 mins; assay type: ADME, organism-based; settings: in vivo
Harderian gland = experiment: Biodistribution in Wistar rat harderian glands at 300 uCi, iv after 120 mins; assay type: ADME, organism-based; settings: in vivo, 2 h
[27] = Biodistribution in Wistar rat fat at 300 uCi, iv after 60 mins; assay type: ADME, organism-based, Adipose tissue; settings: in vivo, 1 h
Blood [28] = experiment: Biodistribution in Wistar rat blood at 300 uCi, iv after 240 mins; assay type: ADME, organism-based; settings: in vivo, 4 h
[29] = Biodistribution in Wistar rat fat at 300 uCi, iv after 240 mins; assay type: ADME, organism-based, Adipose tissue; settings: in vivo, 4 h
Plasma [30] = experiment: Metabolic stability in Wistar rat plasma assessed as polar metabolite level at 1 mCi, iv after 1.5 mins; assay type: ADME, organism-based; settings: in vivo, 0.025 h
[31] = Biodistribution in Wistar rat hair and skin at 300 uCi, iv after 5 mins; assay type: ADME, organism-based; settings: in vivo
Striatum [32] = experiment: Biodistribution in Wistar rat striatum at 300 uCi, iv after 20 mins; assay type: ADME, organism-based; settings: in vivo
Spleen [33] = experiment: Biodistribution in Wistar rat spleen at 300 uCi, iv after 5 mins; assay type: ADME, organism-based; settings: in vivo
Adrenal [34] = experiment: Biodistribution in Wistar rat adrenal gland at 300 uCi, iv after 240 mins; assay type: ADME, organism-based, Adrenal tissue; settings: in vivo, 4 h
Cerebellum [35] = experiment: Biodistribution in Wistar rat cerebellum at 300 uCi, iv after 60 mins in presence of nisoxetine; assay type: ADME, organism-based; settings: in vivo, 1 h
Heart [36] = experiment: Biodistribution in Wistar rat heart at 300 uCi, iv after 240 mins; assay type: ADME, organism-based; settings: in vivo, 4 h
Femur = experiment: Biodistribution in Wistar rat femur at 300 uCi, iv after 240 mins; assay type: ADME, organism-based; settings: in vivo, 4 h
Lung [37] = experiment: Biodistribution in Wistar rat lung at 300 uCi, iv after 5 mins; assay type: ADME, organism-based; settings: in vivo
[38] = Biodistribution in Wistar rat brown fat at 300 uCi, iv after 120 mins; assay type: ADME, organism-based, Brown adipose tissue; settings: in vivo, 2 h
Hippocampus [39] = experiment: Biodistribution in Wistar rat hippocampus at 300 uCi, iv after 60 mins; assay type: ADME, organism-based; settings: in vivo, 1 h
Plasma [40] = experiment: Metabolic stability in Wistar rat plasma assessed as polar metabolite level at 1 mCi, iv after 30 mins; assay type: ADME, organism-based; settings: in vivo, 0.5 h
Cortex [41] = experiment: Biodistribution in Wistar rat cortex at 300 uCi, iv after 60 mins in presence of citalopram; assay type: ADME, organism-based; settings: in vivo, 1 h
Cerebellum [42] = experiment: Biodistribution in Wistar rat cerebellum at 300 uCi, iv after 60 mins in presence of citalopram; assay type: ADME, organism-based; settings: in vivo, 1 h
Adrenal [43] = experiment: Biodistribution in Wistar rat adrenal gland at 300 uCi, iv after 120 mins; assay type: ADME, organism-based, Adrenal tissue; settings: in vivo, 2 h
Kidney [44] = experiment: Biodistribution in Wistar rat kidney at 300 uCi, iv after 240 mins; assay type: ADME, organism-based; settings: in vivo, 4 h
[45] = Biodistribution in Wistar rat fat at 300 uCi, iv after 20 mins; assay type: ADME, organism-based, Adipose tissue; settings: in vivo
Cerebellum [46] = experiment: Biodistribution in Wistar rat cerebellum at 300 uCi, iv after 240 mins; assay type: ADME, organism-based; settings: in vivo, 4 h
Thymus [47] = experiment: Biodistribution in Wistar rat thymus at 300 uCi, iv after 120 mins; assay type: ADME, organism-based; settings: in vivo, 2 h
Plasma [48] = experiment: Metabolic stability in Wistar rat plasma assessed as polar metabolite level at 1 mCi, iv after 60 mins; assay type: ADME, organism-based; settings: in vivo, 1 h
[49] = Biodistribution in Wistar rat hair and skin at 300 uCi, iv after 20 mins; assay type: ADME, organism-based; settings: in vivo
Liver = experiment: Biodistribution in Wistar rat liver at 300 uCi, iv after 120 mins; assay type: ADME, organism-based; settings: in vivo, 2 h
Thymus [50] = experiment: Biodistribution in Wistar rat thymus at 300 uCi, iv after 20 mins; assay type: ADME, organism-based; settings: in vivo
[51] = Biodistribution in Wistar rat brown fat at 300 uCi, iv after 240 mins; assay type: ADME, organism-based, Brown adipose tissue; settings: in vivo, 4 h
Heart [52] = experiment: Biodistribution in Wistar rat heart at 300 uCi, iv after 120 mins; assay type: ADME, organism-based; settings: in vivo, 2 h
Cortex [53] = experiment: Biodistribution in Wistar rat cortex at 300 uCi, iv after 240 mins; assay type: ADME, organism-based; settings: in vivo, 4 h
Hippocampus [54] = experiment: Biodistribution in Wistar rat hippocampus at 300 uCi, iv after 20 mins; assay type: ADME, organism-based; settings: in vivo
Kidney [55] = experiment: Biodistribution in Wistar rat kidney at 300 uCi, iv after 20 mins; assay type: ADME, organism-based; settings: in vivo
Heart [56] = experiment: Biodistribution in Wistar rat heart at 300 uCi, iv after 5 mins; assay type: ADME, organism-based; settings: in vivo
Testes [57] = experiment: Biodistribution in Wistar rat testes at 300 uCi, iv after 5 mins; assay type: ADME, organism-based, Testis; settings: in vivo

In the case of `CN1C2CCC1C(C(=O)OCC[18F])C(c1ccc(Br)cc1)C2` (stereo unspecified), the Drug uptake (Testes [1]) is reported as 0.39 % ID/g, the Drug uptake (Muscle tissue [2]) is reported as 0.33 % ID/g and the Drug uptake (Thymus [3]) is reported as 0.89 % ID/g. For the same molecule, the Drug uptake (Testes [4]) was 0.17 % ID/g, the Drug uptake (Lung [5]) was 1.14 % ID/g and the Drug uptake [6] was 0.59 % ID/g. It also gave a Drug uptake (Lung [7]) of 0.54 % ID/g, a Drug uptake (Cortex [8]) of 3.19 % ID/g and a Stability (Plasma [9]) of 61%. For the same molecule, the Drug uptake (Hippocampus [10]) was 0.91 % ID/g, the Drug uptake (Muscle tissue [11]) was 0.04 % ID/g and the Drug uptake (Cortex [12]) was 0.94 % ID/g. It also gave a Drug uptake [13] of 0.29 % ID/g, a Drug uptake (Spleen [14]) of 0.58 % ID/g and a Drug uptake (Pancreas [15]) of 0.13 % ID/g. The Drug uptake (Kidney [16]) was 3.1 % ID/g, the Drug uptake (Spleen [17]) was 1.41 % ID/g and the Drug uptake [18] was 1.46 % ID/g. For the same molecule, the Drug uptake (Brain) was 1.56 % ID/g, the Drug uptake (Adrenal [19]) was 0.58 % ID/g and the Drug uptake (Striatum [20]) was 4.18 % ID/g. It also gave a Drug uptake (Hippocampus [21]) of 0.18 % ID/g, a Drug uptake (Pancreas [22]) of 0.29 % ID/g and a Drug uptake (Cortex [23]) of 0.96 % ID/g. The Drug uptake (Blood [24]) was 0.16 % ID/g, the Drug uptake (Pancreas [25]) was 1.23 % ID/g and the Drug uptake (Lung [26]) was 2.58 % ID/g. For the same molecule, the Drug uptake (Harderian gland) was 1.82 % ID/g, the Drug uptake [27] was 0.27 % ID/g and the Drug uptake (Blood [28]) was 0.03 % ID/g. The Drug uptake [29] was 0.06 % ID/g, the Stability (Plasma [30]) was 21% and the Drug uptake [31] was 0.47 % ID/g. For the same molecule, the Drug uptake (Striatum [32]) was 3.93 % ID/g, the Drug uptake (Spleen [33]) was 1.51 % ID/g and the Drug uptake (Adrenal [34]) was 0.17 % ID/g. The Drug uptake (Cerebellum [35]) was 0.63 % ID/g, the Drug uptake (Heart [36]) was 0.07 % ID/g and the Drug uptake (Femur) was 0.07 % ID/g. The Drug uptake (Lung [37]) was 6.53 % ID/g, the Drug uptake [38] was 0.21 % ID/g and the Drug uptake (Hippocampus [39]) was 1.12 % ID/g. It also gave a Stability (Plasma [40]) of 76%, a Drug uptake (Cortex [41]) of 0.97 % ID/g and a Drug uptake (Cerebellum [42]) of 0.71 % ID/g. The Drug uptake (Adrenal [43]) was 0.35 % ID/g, the Drug uptake (Kidney [44]) was 0.83 % ID/g and the Drug uptake [45] was 0.48 % ID/g. For the same molecule, the Drug uptake (Cerebellum [46]) was 0.09 % ID/g, the Drug uptake (Thymus [47]) was 0.21 % ID/g and the Stability (Plasma [48]) was 85%. The Drug uptake [49] was 0.47 % ID/g, the Drug uptake (Liver) was 15.7 % ID/g and the Drug uptake (Thymus [50]) was 0.82 % ID/g. It also gave a Drug uptake [51] of 0.08 % ID/g, a Drug uptake (Heart [52]) of 0.12 % ID/g and a Drug uptake (Cortex [53]) of 0.14 % ID/g. The Drug uptake (Hippocampus [54]) was 1.99 % ID/g, the Drug uptake (Kidney [55]) was 3.51 % ID/g and the Drug uptake (Heart [56]) was 1.09 % ID/g. It also gave a Drug uptake (Testes [57]) of 0.33 % ID/g.
